Test results reported in PMC9233739 (Journal of medicinal chemistry, 2016).

What was measured:
P. berghei sporozoites = type: cell-based; conditions: for LBI (TM90-C2B/Pb): liver blood index LBI = TM90-C2B/Pb; for LBI (W2/Pb): liver blood index LBI = W2/Pb
[1] = tested on: P. berghei / P. cynomolgi infections; conditions: cited from earlier work
[2] = tested on: Plasmodium berghei-GFP parasites; test: modified Thompson test in mice; conditions: 10 mg/kg oral on days 3, 4, 5 in HEC/Tween; vs untreated control animals
J774 cell lines = test: cytotoxicity in J774 cells, 96 well plate format; type: cell-based; conditions: Mus musculus, J774, read-out: EC50 J774 (internal controls)
P. falciparum TM90-C2B = test: microbe, parasite or virus in culture; type: cell-based; conditions: Plasmodium falciparum, TM90, read-out: EC50 TM90-C2B

SMILES | LBI (TM90-C2B/Pb) (P. berghei sporozoites) | LBI (W2/Pb) (P. berghei sporozoites) | also measured
COC(=O)c1c[nH]c2ccc(-c3ccccc3)cc2c1=O [Compound 6u] | <40.1 | <11.7 | –
CCCCCc1cc2c(=O)c(C(=O)OC)c[nH]c2cc1OCCOc1ccccc1 [Compound 6y] | >123 | >0.33 | –
CCCCc1cc2c(=O)c(C(=O)OC)c[nH]c2cc1OCCOc1ccccc1 [Compound 6b] | – | – | dose producing radical cures [1]: 15 mg/kg; Inhibition (%) Day 6 PE [2]: <1%
COC(=O)c1c[nH]c2ccc(OC)cc2c1=O [Compound 6o] | >134 | – | –
COC(=O)c1c[nH]c2cc(OCCCc3ccccc3)ccc2c1=O [Compound 6j] | >149 | – | –
O=C1C(O)=C([C@H]2CC[C@H](c3ccc(Cl)cc3)CC2)C(=O)c2ccccc21 [ATO, atovaquone] | – | – | EC50 (J774 cell lines): 23.8 µM; EC50 (P. falciparum TM90-C2B): 18.4 nM
CCCc1cc2c(=O)c(C(=O)OC)c[nH]c2cc1OCCOc1ccccc1 [Compound 6x] | >707 | >2.62 | –
COC(=O)c1c[nH]c2cc(F)ccc2c1=O [Compound 6n] | <3.95 | <0.262 | –
CCN(CC)CCCC(C)Nc1ccnc2cc(Cl)ccc12 (stereo not shown) [CQ, Chloroquine] | – | – | EC50 (J774 cell lines): 47.2 µM
C[C@H]1[C@@H](O)O[C@@H]2O[C@@]3(C)CC[C@H]4[C@H](C)CC[C@@H]1[C@@]24OO3 [DHA, dihydroartemisinin] | – | – | EC50 (J774 cell lines): 1.53 µM
O=c1cc[nH]c2cc(OCCOc3ccccc3)ccc12 [Compound 8a] | <21.7 | <16.8 | –
CCCCc1ccc2[nH]ccc(=O)c2c1 [Compound 8c] | >31.4 | – | –
